Experimental data published in publication PMC3486420, “In Vitro and In Vivo Characterizations of Chiglitazar, a Newly Identified PPAR Pan-Agonist” (PPAR Research, 2012).

How the values were obtained:
C2C12 cells = test: Gene expression by RT-PCR in C2C12 cells; type: cell-based, mouse; settings: 48 h, 10 μM chiglitazar, 50 μM WY14643, 5 μM 2-Bro, compared with rosiglitazone 10 μM
Description: (§1) cDNAs for human retinoid X receptor (hRXR), PPARα, PPARγ, and PPARδ were obtained by reverse transcriptase polymerase chain reaction (RT-PCR) from human liver or adipose tissues. Amplified cDNAs were cloned into pcDNA3.1 expression vector (Invitrogen, Carlsbad, CA, USA). The integrity and fidelity of all constructs made were verified by DNA sequencing. Luciferase reporter plasmids, ACOX promoter for PPARγ and pHD(X3)-luc for PPARα, were kind gifts of Drs. TM McIntyre (University of Utah, USA) and RA Rachubinski (University of Alberta, Canada), respectively. PPRE-luc for PPARδ was constructed based on the previous report by insertion of the annealed oligonucleotides having four copies of the CYP4A6 PPRE (4 × […]) into the upstream of the luciferase coding sequence in pGL3-promoter vector (Promega, Madison, WI, USA). pCMVβGal was purchased from Clontech (Palo Alto, CA, USA). The mouse 3T3-L1 preadipocyte cell line, skeletal muscle C2C12 cell line, and macrophage RAW267.4 cell line and the human osteosarcoma U2OS cell line were obtained from the American Type Culture Collection (ATCC, Rockville, MD, USA). The human hepatoma SMMC-7721 cell line was obtained from the Cell Culture Center of Chinese Academy of Medical Sciences (Beijing, China). Cell lines were cultured in medium of DMEM (3T3-L1, C2C12, and SMMC-7721), RPMI 1640 (RAW267.4), or McCoy's 5A (U2OS), containing 10% fetal bovine serum (FBS), 50 μg/mL streptomycin, and 50 units/mL penicillin at 37°C in a humidified incubator with 5% CO2.
Total RNA was extracted from cells or tissues with an RNeasy minikit (Qiagen, Valencia, CA, USA). The first-strand cDNA was synthesized using the oligo(dT) primers, followed by using SuperScript II reverse transcriptase (Invitrogen) according to the manufacturer's instructions. […] PCR products were analyzed by electrophoresis on a 1.5% agarose gel stained with ethidium bromide. […]

PPARα = molecular target: T1, PPARα (Homo sapiens, UniProt Q07869); test: PPARα transactivation reporter gene assay in U2OS cells; type: cell-based
T1 sequence (Q07869 1-468): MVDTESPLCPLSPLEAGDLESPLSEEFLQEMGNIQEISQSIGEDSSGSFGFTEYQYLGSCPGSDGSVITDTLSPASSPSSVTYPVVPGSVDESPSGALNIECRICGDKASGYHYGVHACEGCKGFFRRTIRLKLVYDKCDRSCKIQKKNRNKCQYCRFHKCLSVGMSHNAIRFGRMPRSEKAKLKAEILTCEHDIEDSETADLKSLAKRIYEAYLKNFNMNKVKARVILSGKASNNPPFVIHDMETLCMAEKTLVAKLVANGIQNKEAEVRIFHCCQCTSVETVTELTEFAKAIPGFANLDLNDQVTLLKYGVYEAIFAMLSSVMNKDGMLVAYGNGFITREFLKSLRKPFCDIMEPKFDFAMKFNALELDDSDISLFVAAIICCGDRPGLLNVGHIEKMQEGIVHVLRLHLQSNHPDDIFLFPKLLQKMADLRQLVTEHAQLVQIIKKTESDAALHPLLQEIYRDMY
T1 sequence (P19793 1-462 partner): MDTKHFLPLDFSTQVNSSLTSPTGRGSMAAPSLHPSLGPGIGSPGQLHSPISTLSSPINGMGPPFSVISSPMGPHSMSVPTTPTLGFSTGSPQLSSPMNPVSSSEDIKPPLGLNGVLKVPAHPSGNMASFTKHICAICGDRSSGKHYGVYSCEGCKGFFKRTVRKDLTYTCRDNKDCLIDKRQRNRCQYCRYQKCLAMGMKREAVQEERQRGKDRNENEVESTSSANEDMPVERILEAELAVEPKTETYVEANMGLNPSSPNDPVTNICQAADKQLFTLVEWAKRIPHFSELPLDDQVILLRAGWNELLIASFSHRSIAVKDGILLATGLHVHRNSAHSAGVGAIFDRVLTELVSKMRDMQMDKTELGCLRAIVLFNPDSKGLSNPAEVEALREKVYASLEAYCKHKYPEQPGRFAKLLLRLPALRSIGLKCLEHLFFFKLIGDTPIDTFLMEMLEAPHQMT

db/db mice = test: Gene expression by RT-PCR in tissues of treated db/db mice; type: in vivo, mouse; settings: 14 days oral, chiglitazar 20 mg kg^−1 compared with rosiglitazone 5 mg kg^−1
Description: (§2) Total RNA was extracted from cells or tissues with an RNeasy minikit (Qiagen, Valencia, CA, USA). The first-strand cDNA was synthesized using the oligo(dT) primers, followed by using SuperScript II reverse transcriptase (Invitrogen) according to the manufacturer's instructions. The PCR amplifications were performed in 10 μL of reaction mixture volume containing 0.8 μL of cDNA, 10 mM Tris-HCl (pH 8.3), 50 mM KCl, 1.5 mM MgCl2, 0.1% Triton X-100, 0.2 mM deoxynucleotide triphosphates, 0.4 μM primers, and 0.25 U of Taq polymerase (TaKaRa Biotechnology Co., Ltd, China). Taq DNA polymerase was added to each tube after a treatment of 2 min at 94°C. This was followed by 22–30 cycles of denaturation (23 s at 94°C), annealing (20 s at 55°C), extension (30 s at 72°C), and a final extension step of 2 min. PCR products were analyzed by electrophoresis on a 1.5% agarose gel stained with ethidium bromide.
Male db/db mice (BKS.Cg-m +/+ LEPR^db) in 6-7 weeks were purchased from The Jackson Laboratory (Bar Harbor, ME, USA). Male KKAy and C57BL/6J mice in 8–10 weeks were obtained from the Institute of Animal Science, Chinese Academy of Medical Sciences and Peking Union Medical College (Beijing, China). […] Plasma glucose levels were examined at various time points by Accu-Chek Advantage II Glucose Strips (Roche Diagnostics, Basel, Switzerland) and measured by Accu-Chek Advantage (Roche Diagnostics). […]

3T3-L1 cells = test: Gene expression by RT-PCR in 3T3-L1 cells; type: cell-based, mouse; settings: 48 h, 10 μM rosiglitazone, 10 μM chiglitazar, vs vehicle
Description: as §1, with “The human hepatoma SMMC-7721 cell line was obtained from the Cell Culture Center of Chinese Academy of Medical Sciences (Beijing, China). Cell lines were cultured in medium of DMEM (3T3-L1, C2C12, and SMMC-7721), RPMI 1640 (RAW267.4), or McCoy's 5A (U2OS), containing 10% fetal bovine serum (FBS), 50 μg/mL streptomycin, and 50 units/mL penicillin at 37°C in a humidified incubator with 5% CO2.” left out
Total RNA was extracted from cells or tissues with an RNeasy minikit (Qiagen, Valencia, CA, USA). […] PCR products were analyzed by electrophoresis on a 1.5% agarose gel stained with ethidium bromide. […]

SMMC-7721 cells = test: Gene expression by RT-PCR in SMMC-7721 cells; type: cell-based, human; settings: 48 h, 10 μM rosiglitazone, 10 μM chiglitazar
Description: as §1, §2
Figure 1 In vitro regulation of gene expression by chiglitazar. (a) Endogenous expression of individual PPAR subtypes in cell lines. […]. The expression change of referred genes induced by different compounds was normalized against internal control (36B4 or GAPDH) and then compared with vehicle control treatment. The data shown are averaged from 3 independent experiments.

O=C(c1ccc(F)cc1)c1ccccc1NC(Cc1ccc(OCCn2c3ccccc3c3ccccc32)cc1)C(=O)O (stereo not shown) [Chi, 2-[(2-(4-fluorobenzoyl)phenyl)amino]-3-[4-(2-carbazolylethoxy)-phenyl]-propionic acid]
Expression of PPARα and/or PPARδ downstream genes CPT-1a and CPT-1b (C2C12 cells): more significantly upregulated | EC50 (PPARα; 24 h treatment, luciferase reporter, hRXR cotransfected, ia: inactive at 10 μM): 1.2 ± 0.3 µM | PPARα % Max (PPARα; max response compared with WY at 50 μM): 147% | Expression of UCP1 in adipose tissue (db/db mice): greater degree of upregulation | Expression of PPARγ downstream genes SREBP1 and adiponectin (3T3-L1 cells): upregulated | Expression of PPARγ downstream genes AOX, LIPC and HSL (SMMC-7721 cells; vs vehicle): upregulated | Expression of LDL receptor (LDLR) (SMMC-7721 cells; 50 μM WY14643, 5 μM 2-Bro): kept no change
